Among the test systems are SARS-CoV-2_M:A85S; SARS-CoV-2_M:W55F; SARS-CoV-2 M:A98D; SARS-CoV-2_M:L90W; SARS-CoV-2_M:L29F; SARS-CoV-2_M:Q185K; SARS-CoV-2_M:M91K.
Type in all cases: cell-based
Another assay concerns SARS-CoV-2 Delta variant. Kind of assay: microbe, parasite or virus in culture. As to conditions: Severe acute respiratory syndrome coronavirus 2; SARS-CoV-2 Delta B.1.617.1.
Assay [1] concerns SARS-CoV-2 Omicron BA.1 variant. Kind of assay: microbe, parasite or virus in culture. The settings on record: Severe acute respiratory syndrome coronavirus 2, SARS-CoV-2 Omicron B.1.1.529.
The next assay deals with SARS-CoV-2 (B1 variant). Kind of assay: microbe, parasite or virus in culture. The settings on record: Severe acute respiratory syndrome coronavirus 2, 48 h.
The mark [2] stands for this setting: read-out: EC50, production of viral RNA.
Where [3] appears, read: read-out: EC90, production of viral RNA.

Like-named read-outs stand apart in the source and are kept apart here.

One may read the EC50 as the concentration at which the effect is half-maximal. In general, EC90 refers to the point of the concentration-response curve where the effect stands at 90%. Consider `C[C@H]1Cn2ncc(C(=O)Nc3cccc(C#N)c3)c2C(=O)N1c1ccc(C(F)(F)c2ccccc2)cc1` [JNJ-9676, (S)-N-(3-cyanophenyl)-5-(4-(difluoro(phenyl)methyl)phenyl)-6-methyl-4-oxo-4,5,6,7-tetrahydropyrazolo[1,5-a]pyrazine-3-carboxamide], for which the EC50 in the assay with SARS-CoV-2 Delta variant was determined as 14 nM; in assay [1], 26 nM; with SARS-CoV-2 (B1 variant) (setting [2]), 94 ± 3.4 nM. The EC90 with SARS-CoV-2 (B1 variant) (setting [3]) was 132 ± 36.7 nM. The “Potency shift (EC50 fold change ± SD vs recombinant WT virus)” value with SARS-CoV-2_M:A85S was 0.64 ± 0.21 fold change; in the assay with SARS-CoV-2_M:W55F, 0.62 ± 0.26 fold change; with SARS-CoV-2 M:A98D, 2.02 ± 0.58 fold change; in the assay on SARS-CoV-2_M:L90W, 2.47 ± 1.48 fold change; in the assay on SARS-CoV-2_M:L29F, 5.57 ± 0.42 fold change; in the assay with SARS-CoV-2_M:Q185K it was 5.55 ± 1.92 fold change. In addition, the “Potency shift (EC50 fold change ± SD vs recombinant WT virus)” value in the assay on SARS-CoV-2_M:M91K is 10.03 ± 3.28 fold change.

Turning to `CC(C)(C)[C@H](NC(=O)C(F)(F)F)C(=O)N1C[C@H]2[C@@H]([C@H]1C(=O)N[C@H](C#N)C[C@@H]1CCNC1=O)C2(C)C` [nirmatrelvir, reference compound], the EC50 came to 109 nM in the assay with SARS-CoV-2 (B1 variant) (read-out: EC50, RNA copy numbers (printed in Fig. 1c)) and 109 ± 55.6 nM in the assay with SARS-CoV-2 (B1 variant) (setting [2]). Besides, the EC90 with SARS-CoV-2 (B1 variant) (read-out: EC90, RNA copy numbers (printed in Fig. 1c)) came out at 268 nM; in the assay with SARS-CoV-2 (B1 variant) (setting [3]), 268 ± 112 nM.

Source of the values: paper PMC11981937 (Nature, 2025).
